Test results taken from patent publication US9637469B2, “Pyridine derivative” (Teijin Pharma Limited, priority 2012, dated 2017).

biological target: T1, human URAT1 (Homo sapiens, UniProt Q96S37); experiment: Test for inhibition of uric acid transport using human URAT1-expressing cells;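 further: three stars up to 0.2 µM two stars 0.2-2 µM one star 2-20 µM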; format: cell-based; details: HEK 293 cells expressing human URAT1; 14C-labeled uric acid 25 μM; uptake 37° C. for 5 min
T1 construct: Full-length cDNA of human URAT1 (hURAT1)
T1 sequence (Q96S37 1-553): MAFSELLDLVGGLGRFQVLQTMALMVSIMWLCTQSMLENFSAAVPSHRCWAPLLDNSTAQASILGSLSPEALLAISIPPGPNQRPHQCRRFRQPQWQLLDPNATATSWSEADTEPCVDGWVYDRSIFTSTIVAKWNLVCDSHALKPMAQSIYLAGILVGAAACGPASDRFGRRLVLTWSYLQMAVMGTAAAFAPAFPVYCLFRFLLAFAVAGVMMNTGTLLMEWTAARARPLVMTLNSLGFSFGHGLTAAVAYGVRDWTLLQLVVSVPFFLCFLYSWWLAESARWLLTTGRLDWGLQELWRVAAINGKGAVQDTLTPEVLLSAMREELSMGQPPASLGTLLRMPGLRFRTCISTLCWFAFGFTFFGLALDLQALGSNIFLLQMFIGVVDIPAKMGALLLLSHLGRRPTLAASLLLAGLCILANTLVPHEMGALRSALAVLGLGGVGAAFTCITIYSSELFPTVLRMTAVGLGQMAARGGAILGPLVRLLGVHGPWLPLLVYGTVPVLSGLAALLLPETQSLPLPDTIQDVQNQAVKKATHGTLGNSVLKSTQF
Method in brief: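 HEK293 cells stably transfected with full-length hURAT1, preincubated 10 min at 37 °C in HBSS with NaCl replaced by Na gluconate. Uptake of 25 μM ¹⁴C-uric acid with compound ran 5 min at 37 °C, then scintillation counting. IC50 derived from % of DMSO-control URAT1-specific uptake.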

SMILES	Inhibitory Activity (IC50 of uric acid transport inhibition)
Cc1nc(-c2cccnc2)n(Cc2cc(Cl)cc(Cl)c2)c1C(=O)O [Compound A71, 1-(3,5-dichlorobenzyl)-4-methyl-2-(pyridin-3-yl)-1H-imidazole-5-carboxylic acid]	* * *
Cc1nc(-c2cncc(F)c2)n(Cc2cc(Cl)sc2Cl)c1C(=O)O [Compound A225, 1-((2,5-dichlorothiophen-3-yl)methyl)-2-(5-fluoropyridin-3-yl)-4-methyl-1H-imidazole-5-carboxylic acid]	* * *
CCc1nc(-c2cccnc2)n(Cc2cccc3ccccc23)c1C(=O)O [Compound A10, 4-ethyl-1-(naphthalen-1-ylmethyl)-2-(pyridin-3-yl)-1H-imidazole-5-carboxylic acid]	* *
Cc1cncc(-c2ccc(C(=O)NS(=O)(=O)C3CC3)n2Cc2cc(Cl)ccc2Cl)c1 [Compound B32, N-(cyclopropylsulfonyl)-1-(2,5-dichlorobenzyl)-2-(5-methylpyridin-3-yl)-1H-pyrrole-5-carboxamide]	* * *
CC(=O)c1nc(-c2cncc(Cl)c2)n(Cc2cc(Cl)ccc2Cl)c1C(=O)O [Compound A218, 4-acetyl-2-(5-chloropyridin-3-yl)-1-(2,5-dichlorobenzyl)-1H-imidazole-5-carboxylic acid]	* * *
CCc1nc(-c2cncc(Cl)c2)n(Cc2cccc3ccccc23)c1C(=O)O [Compound A149, 2-(5-chloropyridin-3-yl)-4-ethyl-1-(naphthalen-1-ylmethyl)-1H-imidazole-5-carboxylic acid]	* * *
O=C(O)c1c(C2CC2)nc(-c2cccnc2)n1Cc1csc2cccc(C(F)(F)F)c12 [Compound A35, 4-cyclopropyl-2-(pyridin-3-yl)-1-((4-(trifluoromethyl)benzo[b]thiophen-3-yl)methyl)-1H-imidazole-5-carboxylic acid]	* *
O=C(O)c1c(C(F)(F)F)nc(-c2cccnc2)n1Cc1csc2cccc(Cl)c12 [Compound A27, 1-((4-chlorobenzo[b]thiophen-3-yl)methyl)-2-(pyridin-3-yl)-4-(trifluoromethyl)-1H-imidazole-5-carboxylic acid]	* *
O=C(O)/C=C/c1ccc(-c2cncc(F)c2)n1Cc1cc(Cl)ccc1Cl [Compound B35, (E)-3-(1-(2,5-dichlorobenzyl)-2-(5-fluoropyridin-3-yl)-1H-pyrrol-5-yl)acrylic acid]	* * *
Cc1nc(-c2cccnc2)n(Cc2cc(C(F)(F)F)ccc2C(F)(F)F)c1C(=O)O [Compound A46, 1-(2,5-bis(trifluoromethyl)benzyl)-4-methyl-2-(pyridin-3-yl)-1H-imidazole-5-carboxylic acid]	* *
CC(C)c1nc(-c2cncc(Cl)c2)n(Cc2cccc3ccsc23)c1C(=O)O [Compound A235, 1-(benzo[b]thiophen-7-ylmethyl)-2-(5-chloropyridin-3-yl)-4-isopropyl-1H-imidazole-5-carboxylic acid]	* * *
CN(C)Cc1nc(-c2cncc(Cl)c2)n(Cc2cc(Cl)ccc2Cl)c1C(=O)O [Compound A192, 2-(5-chloropyridin-3-yl)-1-(2,5-dichlorobenzyl)-4-((dimethylamino)methyl)-1H-imidazole-5-carboxylic acid]	* *
COc1cccc(-c2nc(C)c(C(=O)O)n2Cc2cccc3ccccc23)n1 [Compound A240, 2-(6-methoxypyridin-2-yl)-4-methyl-1-(naphthalen-1-ylmethyl)-1H-imidazole-5-carboxylic acid]	* *
CS(=O)(=O)NC(=O)c1c(C2CC2)nc(-c2cccnc2)n1Cc1cccc2ccsc12 [Compound A117, 1-(benzo[b]thiophen-7-ylmethyl)-4-cyclopropyl-N-(methylsulfonyl)-2-(pyridin-3-yl)-1H-imidazole-5-carboxamide]	* *
CC(C)(Sc1cnc(-c2cncc(Cl)c2)n1Cc1cc(Cl)ccc1Cl)C(=O)O [Compound A262, 2-((2-(5-chloropyridin-3-yl)-1-(2,5-dichlorobenzyl)-1H-imidazol-5-yl)thio)-2-methylpropanoic acid]	* *
CCC(O)(CC)c1nc(-c2cncc(C)c2)n(Cc2cc(Cl)ccc2Cl)c1C(=O)O [Compound A217, 1-(2,5-dichlorobenzyl)-4-(3-hydroxypentan-3-yl)-2-(5-methylpyridin-3-yl)-1H-imidazole-5-carboxylic acid]	* * *

Other lines, results leading:

Inhibitory Activity (IC50 of uric acid transport inhibition)	SMILES
* *	CCC(O)(CC)c1nc(-c2cccnc2)n(Cc2cc(Cl)ccc2Cl)c1C(=O)O [Compound A109, 1-(2,5-dichlorobenzyl)-4-(3-hydroxypentan-3-yl)-2-(pyridin-3-yl)-1H-imidazole-5-carboxylic acid]
* * *	Cc1nc(Oc2cnccc2Cl)n(Cc2cc(Cl)ccc2Cl)c1C(=O)O [Compound A257, 2-((4-chloropyridin-3-yl)oxy)-1-(2,5-dichlorobenzyl)-4-methyl-1H-imidazole-5-carboxylic acid]
* * *	CC(C)(O)c1nc(-c2cccnc2)n(Cc2cc(Cl)ccc2Cl)c1C(=O)O [Compound A108, 1-(2,5-dichlorobenzyl)-4-(2-hydroxypropan-2-yl)-2-(pyridin-3-yl)-1H-imidazole-5-carboxylic acid]
* *	Cc1nc(-c2ccc(Cl)nc2)n(Cc2cc(Cl)ccc2Cl)c1C(=O)O [Compound A164, 2-(6-chloropyridin-3-yl)-1-(2,5-dichlorobenzyl)-4-methyl-1H-imidazole-5-carboxylic acid]
* *	Cc1nc(-c2cnc3ccccc3c2)n(Cc2cc(Cl)ccc2Cl)c1C(=O)O [Compound A67, 1-(2,5-dichlorobenzyl)-4-methyl-2-(quinolin-3-yl)-1H-imidazole-5-carboxylic acid]
* *	COc1ncccc1-c1nc(C)c(C(=O)O)n1Cc1cc(Cl)ccc1Cl [Compound A162, 1-(2,5-dichlorobenzyl)-2-(2-methoxypyridin-3-yl)-4-methyl-1H-imidazole-5-carboxylic acid]
* * *	O=C(O)c1c(I)nc(-c2cccnc2)n1Cc1cc(Cl)ccc1Cl [Compound A90, 1-(2,5-dichlorobenzyl)-4-iodo-2-(pyridin-3-yl)-1H-imidazole-5-carboxylic acid]
* * *	O=C(O)c1c(-c2ccccc2)nc(-c2cccnc2)n1Cc1cc(Cl)ccc1Cl [Compound A91, 1-(2,5-dichlorobenzyl)-4-phenyl-2-(pyridin-3-yl)-1H-imidazole-5-carboxylic acid]
* *	Cc1nc(-c2cccnc2)n(Cc2cc(Cl)sc2Cl)c1C(=O)O [Compound A79, 1-((2,5-dichlorothiophen-3-yl)methyl)-4-methyl-2-(pyridin-3-yl)-1H-imidazole-5-carboxylic acid]
* * *	CSc1nc(-c2cccnc2)n(Cc2cc(Cl)ccc2Cl)c1C(=O)O [Compound A104, 1-(2,5-dichlorobenzyl)-4-(methylthio)-2-(pyridin-3-yl)-1H-imidazole-5-carboxylic acid]
* *	Cc1nc(-c2cccnc2)n(Cc2ccc(Cl)cc2Cl)c1C(=O)O [Compound A77, 1-(2,4-dichlorobenzyl)-4-methyl-2-(pyridin-3-yl)-1H-imidazole-5-carboxylic acid]

same assay, conditions: HEK 293 cells expressing human URAT1; 14C-labeled uric acid 25 μM; uptake 37° C. for 5 min; read-out: Inhibitory Activity (IC50 of uric acid transport inhibition)

SMILES	IC50 [µM]
COc1ccc(-c2nc(C)c(C(=O)O)n2Cc2cccc3ccccc23)c(OC)n1 [Compound A47]	2 to 20
Cc1nc(-c2cccnc2)n(Cc2ccccc2OC(F)(F)F)c1C(=O)O [Compound A62]	2 to 20
Cc1cccc2cccc(Cn3c(-c4cccnc4)nc(C(F)(F)F)c3C(=O)O)c12 [Compound A30]	2 to 20
CCc1ccccc1Cn1c(-c2cccnc2)nc(C)c1C(=O)O [Compound A59]	2 to 20
O=C(O)/C=C/c1cnc(-c2cccnc2)n1Cc1cccc2ccccc12 [Compound A259]	2 to 20
Cc1nc(-c2ccncc2)n(Cc2cccc3ccccc23)c1C(=O)O [Compound A239]	2 to 20
COc1ccccc1Oc1cncc(-c2nc(C)c(C(=O)O)n2Cc2cccc3ccccc23)c1 [Compound A131]	2 to 20

Now from value to compound:

IC50 [µM]	SMILES
2 to 20	CC[S+]([O-])c1nc(-c2cccnc2)n(Cc2cc(Cl)ccc2Cl)c1C(=O)O (stereo not shown) [Compound A107]
2 to 20	O=C(O)c1c(-c2ccncc2)nc(-c2cccnc2)n1Cc1cc(Cl)ccc1Cl [Compound A95]
2 to 20	Cc1nc(-c2cccnc2)n(Cc2cccc(Cl)c2)c1C(=O)O [Compound A52]
